{
  "source": "patent US9504663B2",
  "about": "“Composition for the treatment of cystic fibrosis” (SciPharm SaRL, priority 2011, dated 2016)",
  "key": {"IB3-1 cells [1]": {"test_system": "IB3-1 cells", "experiment": "Treprostinil-induced [3H]cAMP accumulation in IB3-1 cells with or without PDE inhibitors", "format": "cell-based, human", "conditions": "for accumulation of cAMP with PDE3 inhibitors: in experiments", "protocol": "IB3-1 cells were plated on 6 well-plates (0.2*10^6 cells/well in FIG. 1; 0.4*10^6 cells in FIG. 2) in complete growth medium (LHC-8+5% FCS). The following day, the adenine nucleotide pool was metabolically labeled by incubation with [3H]adenine (1 μCi/well) in Dulbecco's Modified Eagle Medium (DMEM) containing adenosine deaminase (1 unit/ml) for 4 h. Thereafter the medium was replaced with fresh medium; the cells were stimulated by sole addition of Treprostinil (in logarithmically spaced concentrations ranging from 0.1 to 30 μM) or of Treprostinil in combination with the indicated concentrations of PDE-inhibitors. After an incubation of 30 min, the cells were lysed by the addition of perchloric acid. The formation of [3H]cAMP was determined by sequential chromatography on Dowex 50WX-4 and neutral alumina columns followed by liquid scintillation counting of the eluate. The assay was performed in triplicate. IB3-1 cells were seeded onto PDL-coated wells of 6-well plates (2 to 2.5*10^5 cells/well) in complete growth medium (LHC-8+5% FCS). On the following day, the cellular adenine nucleotide pool was metabolically labelled by incubation with [^3H]adenine (1 μCi/well) in Dulbecco's Modified Eagle Medium (DMEM) in the presence of adenosine deaminase (5 μg/ml) for 4 h. Subsequently, the medium was replaced with fresh DMEM and the formation of cAMP was stimulated by addition of 5 μM forskolin, a direct activator of the adenylyl cyclase, or 10 μM treprostinil in the absence and presence of different concentrations of the following phosphodiesterase (PDE) inhibitors: ibudilast (0.3-1000 μM), Ro-20-1724 (0.03-300 μM), roflumilast (1 nM-10 μM), dipyridamole (0.01-100 μM), aminone (1, 10, 100 μM), anagrelide (1, 10, 100 μM), enoximone (1, 10, 100 μM), milrinone (1, 10, 100 μM) and cilostazol (0.1 to 100 μM) for 20 min at 37° C. […] The formation of [^3H]cAMP was quantified by liquid scintillation counting."}, "IB3-1 cells [2]": {"test_system": "IB3-1 cells", "experiment": "Forskolin-triggered [3H]cAMP accumulation in IB3-1 cells with PDE inhibitors", "format": "cell-based, human", "conditions": "5 μM forskolin", "procedure": "IB3-1 cells were seeded onto PDL-coated wells of 6-well plates (2 to 2.5*10^5 cells/well) in complete growth medium (LHC-8+5% FCS). On the following day, the cellular adenine nucleotide pool was metabolically labelled by incubation with [^3H]adenine (1 μCi/well) in Dulbecco's Modified Eagle Medium (DMEM) in the presence of adenosine deaminase (5 μg/ml) for 4 h. Subsequently, the medium was replaced with fresh DMEM and the formation of cAMP was stimulated by addition of 5 μM forskolin, a direct activator of the adenylyl cyclase, or 10 μM treprostinil in the absence and presence of different concentrations of the following phosphodiesterase (PDE) inhibitors: ibudilast (0.3-1000 μM), Ro-20-1724 (0.03-300 μM), roflumilast (1 nM-10 μM), dipyridamole (0.01-100 μM), aminone (1, 10, 100 μM), anagrelide (1, 10, 100 μM), enoximone (1, 10, 100 μM), milrinone (1, 10, 100 μM) and cilostazol (0.1 to 100 μM) for 20 min at 37° C. In some instances, the effect of these inhibitors on basal cAMP accumulation was examined by incubating cells in the absence of any additional stimulus with increasing concentrations of PDE-inhibitors (i.e., dipyridamole, ibudilast and Ro-20-1724 at 1, 10 and 100 μM; roflumilast at and 0.1, 1 and 10 μM of Roflumilast). Concentration-response curves for treprostinil were obtained by adding treprostinil (0.1 to 30 μM) alone or in combination with 100 μM Ro-20-1724, 100 μM ibudilast or 5 μM roflumilast. The reaction performed in triplicate was stopped by adding 2.5% perchloric acid together with 0.1 mM (unlabelled) cAMP. [^3H]cAMP was isolated by sequential chromatography on Dowex 50W-X4 and neutral alumina columns. The formation of [^3H]cAMP was quantified by liquid scintillation counting."}, "[3]": {"conditions": "aerosolised; patient with cystic fibrosis and secondary pulmonary hypertension; cited from earlier work"}, "[4]": {"test_system": "cystic fibrosis transmembrane conductance regulator/Cl- channel (CFTR)", "experiment": "Whole cell patch clamp of treprostinil-induced Cl- currents through CFTR, Example 3", "format": "cell-based, human", "conditions": "for effect on treprostinil-induced CFTR current of adding PDE4 inhibitor: added on top of treprostinil", "procedure": "The following human bronchial epithelial cell lines were obtained through ATCC: BEAS-2B (ATCC CRL-9609), NuLi-1 (ATCC CRL-4011), IB3-1 (ATCC CRL-2777), CuFi-1 (ATCC CRL-4013). Cells were propagated using the culture conditions outlined in the ATCC recommendations, e.g., I3B-1 cells were maintained on dishes coated with fibronectin (10 μg/m) rat collagen I (30 μg/ml) and BSA 10 μg/mL) in LHC-8 medium (Gibco) containing 5% fetal calf serum (FCS) at 37° C. in a 5% CO2 humified atmosphere. BEAS-2B cells were maintained at 37° C. in a 5% CO2 humified atmosphere on dishes precoated with collagen IV (60 μg/ml in 0.25% acetic acid) in BEGM medium (Lonza); the GA-1000 (gentamycin-amphotericin B mix) provided with the BEGM kit was not added to the medium. The level of endogenous expression of CFTR was too low to obtain a reliable signal. Accordingly, BEAS-2B cells were transiently transfected with a plasmid driving the expression of human GFP-tagged wild type CFTR by using Lipofectamine Plus® (Invitrogen) according to the instructions of the manufacturer. Cells expressing this GFP-tagged CFTR were identified by fluorescence microscopy and subjected to patch clamp recordings as outlined below. The whole cell patch clamp technique was used for current recordings performed at 22±1.5° C. using an Axoclamp 200B patch clamp amplifier (Axon Instruments). Pipettes had resistances between 1 and 2 MO when filled with the recording pipette solution (composition: 110 mM CsCl, 5 mM EGTA, 2 mM MgCl2, 1 mM K2.ATP, 10 mM Hepes, pH adjusted to 7.2 with CsOH). Voltage-clamp protocols and data acquisition were performed with […] 6.0 software (Axon Instruments). Data were low-pass filtered at 2 kHz (-3 dB) and digitized at 10-20 kHz. Cells were continuously superfused with external solution (composition: 145 mM NaCl, 4.5 mM KCl, 2 mM CaCl2, 1 mM MgCl2, 5 mM glucose, 10 mM Hepes, pH adjusted to 7.4 with NaOH). When indicated, the external solution contained Treprostinil (10 μM) or forskolin (5 μM), switching between solutions was achieved by electronically controlled pressure valves."}, "CFTR-wt": {"test_system": "CFTR-wt", "experiment": "Whole cell patch clamp of Cl- current in IB3-1 cells transiently expressing GFP-tagged wild type CFTR", "format": "cell-based, human", "protocol": "The whole cell patch clamp technique was used for current recordings performed at 22±1.5° C. using an Axoclamp 200B patch clamp amplifier (Axon Instruments). Pipettes had resistances between 1 and 2 MΩ when filled with the recording pipette solution (composition: 110 mM CsCl, 5 mM EGTA, 2 mM MgCl2, 1 mM K2.ATP, 10 mM Hepes, pH adjusted to 7.2 with CsOH). […] Data were low-pass filtered at 2 kHz (-3 dB) and digitized at 10-20 kHz. Cells were continuously superfused with external solution (composition: 145 mM NaCl, 4.5 mM KCl, 2 mM CaCl2, 1 mM MgCl2, 5 mM glucose, 10 mM Hepes, pH adjusted to 7.4 with NaOH). When indicated, the external solution contained Treprostinil (10 μM) or forskolin (5 μM), switching between solutions was achieved by electronically controlled pressure valves. IB3-1 cells were grown on dishes (Nunc, 3.5 cm diameter) covered with fibronectin (10 μg/mL) rat collagen I (30 μg/mL) and BSA 10 μg/mL) in LHC-8 medium (Gibco) containing 5% fetal calf serum (FCS). Cells were transiently transfected with a plasmid driving the expression of human GFP-tagged wild type CFTR by using Lipofectamine Plus® (Invitrogen) according to the instructions of the manufacturer. […] A transiently transfected IB3-1 cell expressing GFP-tagged wild type CFTR was selected under fluorescent light and clamped to a holding potential at -40 mV. Depolarization was induced by a voltage step to +60 mV for 50 ms and the current amplitude was recorded. Wash-in of Treprostinil (10 μM final concentration, TP) was initiated at the time point 50 s and terminated at 125 s. Forskolin was washed in at 275 s and was removed at 375 s."}, "human erythrocytes": {"test_system": "human erythrocytes", "conditions": "cited from earlier work"}, "rabbit erythrocytes": {"test_system": "rabbit erythrocytes", "conditions": "cited from earlier work"}},
  "note": "Entries after “also recorded” stand apart in the source; their conditions may differ.",
  "data": [
    {"smiles": "OCCN(CCO)c1nc(N2CCCCC2)c2nc(N(CCO)CCO)nc(N3CCCCC3)c2n1", "note": "[dipyridamole]", "values": [
      {"measurement": "efficacy in treprostinil-triggered cAMP accumulation", "setting": "IB3-1 cells [1]; 10 μM treprostinil", "result": "higher efficacy"},
      {"measurement": "enhancement of the cAMP accumulation triggered by forskolin", "setting": "IB3-1 cells [2]", "result": "substantially enhanced"},
      {"measurement": "relative potency as inhibitor, forskolin-triggered cAMP accumulation", "setting": "IB3-1 cells [2]", "result": "less potent inhibitor"}
    ]},
    {"smiles": "CC#CCC(C)[C@H](O)/C=C/[C@@H]1[C@H]2C/C(=C/CCCC(=O)O)C[C@H]2C[C@H]1O", "note": "(stereo partly drawn) [Iloprost, 5-{(E)-(1S,5S,6R,7R)-7-hydroxy-6-[(E)-(3S,4RS)-3-hydroxy-4-methyl-1-octen-6-inyl]-bi-cyclo[3.3.0]octan-3-ylidene}pentanoic acid]", "values": [
      {"measurement": "pulmonary artery pressure", "setting": "[3]", "result": "effective in lowering pulmonary artery pressure"}
    ]},
    {"smiles": "O=C(Nc1c(Cl)cncc1Cl)c1ccc(OC(F)F)c(OCC2CC2)c1", "note": "[Roflumilast, 3-(cyclopropylmethoxy)-N-(3,5-dichloropyridin-4-yl)-4-(difluoromethoxy)benzamide]", "values": [
      {"measurement": "effect on treprostinil-induced CFTR current of adding PDE4 inhibitor", "setting": "[4]", "result": "additional increase of the current"},
      {"measurement": "enhancement of the cAMP accumulation triggered by forskolin", "setting": "IB3-1 cells [2]", "result": "substantially enhanced"},
      {"measurement": "relative potency as inhibitor, forskolin-triggered cAMP accumulation", "setting": "IB3-1 cells [2]", "result": "most potent inhibitor"}
    ]},
    {"smiles": "CCCCOc1cc(CC2CNC(=O)N2)ccc1OC", "note": "(centres unmarked) [RO20-1724]", "values": [
      {"measurement": "effect on treprostinil-induced CFTR current of adding PDE4 inhibitor", "setting": "[4]", "result": "additional increase of the current"},
      {"measurement": "enhancement of the cAMP accumulation triggered by forskolin", "setting": "IB3-1 cells [2]", "result": "substantially enhanced"},
      {"measurement": "relative efficacy, forskolin-triggered cAMP accumulation", "setting": "IB3-1 cells [2]; compared with roflumilast", "result": "more effective than roflumilast"}
    ]},
    {"smiles": "CCCCC[C@H](O)CC[C@@H]1[C@H]2Cc3cccc(OCC(=O)[O-])c3C[C@H]2C[C@H]1O.[Na+]", "note": "[Treprostinil, (1R,2R,3aS,9aS)-[[2,3,3a,4,9,9a-hexahydro-2-hydroxy-1-[(3S)-3-hydroxyoctyl]-1H-benz[f]inden-5-yl]oxy]acetic acid monosodium salt]", "values": [
      {"measurement": "activation of the current (CFTR)", "setting": "CFTR-wt; 10 μM Treprostinil, depolarization from −40 mV holding potential to +60 mV, monosodium salt", "result": "robust activation; also recorded: can activate CFTR"},
      {"measurement": "time for current to decay to basal after washout", "setting": "CFTR-wt; 10 μM treprostinil", "result": "~100", "unit": "s"},
      {"measurement": "activation of CFTR (outward current)", "setting": "[4]; voltage jumps from −20 to −80 mV", "result": "sustained activation of CFTR"},
      {"measurement": "receptor-mediated cAMP synthesis and ATP release", "setting": "human erythrocytes", "result": "stimulate"},
      {"measurement": "receptor-mediated cAMP synthesis and ATP release", "setting": "rabbit erythrocytes", "result": "stimulate"}
    ]},
    {"smiles": "O=C1CCc2cc(OCCCCc3nnnn3C3CCCCC3)ccc2N1", "note": "[Cilostazol]", "values": [
      {"measurement": "accumulation of cAMP with PDE3 inhibitors", "setting": "IB3-1 cells [1]", "result": "did not induce any accumulation of cAMP"}
    ]},
    {"smiles": "O=C1CN2Cc3c(ccc(Cl)c3Cl)N=C2N1", "note": "[Anagrelide]", "values": [
      {"measurement": "accumulation of cAMP with PDE3 inhibitors", "setting": "IB3-1 cells [1]", "result": "did not induce any accumulation of cAMP"}
    ]}
  ]
}
